Data: US20090042883A1, “ANTITUMOR AGENT” (KYOWA HAKKOKOGYO CO., priority 2005, published 2009)

Assays:
Format in all cases: cell-based
[1] = system: human chronic myelocytic leukemia K562 cells; experiment: Growth inhibition test on human chronic myelocytic leukemia K562 cells (WST-1, % viability); settings: test compound 10 μmol/L, 72 hours, cells without test compound = 100%
Description: One thousand cells of human chronic myelocytic leukemia K562 were inoculated into each well of a 96-well microplate (manufactured by Nunc Corp.), and using RPMI1640 medium (culture medium) containing 10% fetal calf serum (FCS), preculturing was performed in a 5% carbon dioxide incubator at 37° C. for 24 hours. A dimethyl sulfoxide (DMSO) solution of each test compound prepared in a concentration of 10 mmol/L was diluted with the culture medium to a final concentration of 10 μmol/L, and the diluted solution was added to each well. The individual wells were further cultured in the 5% carbon dioxide incubator at 37° C. for 72 hours. After completion of the culturing, 10 μL of WST-1 {4-[3-(4-Iodophenyl)-2-(4-nitrophenyl)-2H-5-tetrazolio]-1,3-benzene disulfonate} labeled mixture (manufactured by Roche Diagnostic Corp.) was added to each well, and culturing was performed in the 5% carbon dioxide incubator at 37° C. for 2 hours. Using a microplate spectrophotometer (SpectraMax 340PC384; manufactured by Nihon Molecular Devices), the absorbance of each well was measured at 450 nm and 655 nm. The value obtained by subtracting the absorbance at 450 nm from the absorbance at 655 nm (absorbance difference) was calculated for each well. The value for cells not incorporated with a test compound was designated as 100%, and the value at a well not containing cells was designated as 0%. By comparing these values with the absorbance difference obtained at the well in which each test compound was added, the cell viability (% viability) after treatment with the test compound was calculated.

[2] = system: human acute myelocytic leukemia MV4; 11 cells; experiment: Growth inhibition test on human acute myelocytic leukemia MV4; 11 cells (WST-1, % viability); settings: test compound 10 μmol/L, cells without test compound = 100%
Description: Ten thousand cells of human acute myelocytic leukemia MV4; 11 were inoculated into each well of a 96-well microplate (manufactured by Nunc Corp.), and using IMDM medium (culture medium) containing 10% FCS, preculturing was performed in a 5% carbon dioxide incubator at 37° C. for 24 hours. A DMSO solution of each test compound prepared in a concentration of 10 mmol/L was diluted with the culture medium to a final concentration of 10 μmol/L, and the diluted solution was added to each well. The individual wells were further cultured in the 5% carbon dioxide incubator at 37° C. for 72 hours. After completion of the culturing, 10 μL of WST-1 labeled mixture (manufactured by Roche Diagnostic Corp.) was added to each well, and culturing was performed in the 5% carbon dioxide incubator at 37° C. for 1 hour. Using a microplate spectrophotometer (SpectraMax 340PC384; manufactured by Nihon Molecular Devices), the absorbance of each well was measured at 450 nm and 655 nm. The value obtained by subtracting the absorbance at 450 nm from the absorbance at 655 nm (absorbance difference) was calculated for each well. The value for cells not incorporated with a test compound was designated as 100%, and the value at a well not containing cells was designated as 0%. By comparing these values with the absorbance difference obtained at the well in which each test compound was added, the cell viability (% viability) after treatment with the test compound was calculated.

[3] = system: human chronic lymphocytic leukemia-derived MEC-1 cells; experiment: Growth inhibition test on human chronic lymphocytic leukemia-derived MEC-1 cells (WST-1, % viability); settings: test compound 10 μmol/L, 72 hours, cells without test compound = 100%
Description: (§1) Ten thousand cells of human chronic lymphocytic leukemia-derived MEC-1 were inoculated into each well of a 96-well microplate (manufactured by Nunc Corp.), and using RPMI1640 medium (culture medium) containing 10% FCS, preculturing was performed in a 5% carbon dioxide incubator at 37° C. for 1 hour. A DMSO solution of each test compound prepared in a concentration of 10 mmol/L was diluted with the culture medium to a final concentration of 10 μmol/L, and the diluted solution was added to each well. The individual wells were further cultured in the 5% carbon dioxide incubator at 37° C. for 72 hours. After completion of the culturing, 10 μL of WST-1 labeled mixture (manufactured by Roche Diagnostic Corp.) was added to each well, and culturing was performed in the 5% carbon dioxide incubator at 37° C. for 3 hours. Using a microplate spectrophotometer (M-SPmax 250; manufactured by Molecular Devices Corp.), the absorbance of each well was measured at 450 nm and 655 nm. The value obtained by subtracting the absorbance at 450 nm from the absorbance at 655 nm (absorbance difference) was calculated for each well. The value for cells not incorporated with a test compound was designated as 100%, and the value at a well not containing cells was designated as 0%. By comparing these values with the absorbance difference obtained at the well in which each test compound was added, the cell viability (% viability) after treatment with the test compound was calculated.

[4] = system: human prostate cancer 22Rv1 cells; experiment: Growth inhibition test on human prostate cancer 22Rv1 cells (WST-1, % viability); settings: test compound 10 μmol/L, 72 hours, cells without test compound = 100%
Description: as §1, with “Five thousand” for “Ten thousand”, “human prostate cancer 22Rv1” for “human chronic lymphocytic leukemia-derived MEC-1”, “for 24 hours.” for “for 1 hour.”, “for 2” for “for 3”, “spectrophotometer (Model 550;” for “spectrophotometer (M-SPmax 250;”, “by Bio-Rad),” for “by Molecular Devices Corp.),”

Row | Compound | Viability of tumor cells (% viability), Human chronic myelocytic leukemia K562 cells [1] | Viability of tumor cells (% viability), Human acute myelocytic leukemia MV4; 11 cells [2] | Viability of tumor cells (% viability), Human chronic lymphocytic leukemia MEC-1 cells [3] | Viability of tumor cells (% viability), Human prostate cancer 22Rv1 cells [4]
1 | CCc1c(O)cc(O)c(C(=O)c2ccc(OC)cc2)c1CC(=O)N(CCO)CCOC [Compound 33] | 4% | 0% | 4% | 5%
2 | CCc1c(O)cc(O)c(C(=O)c2ccc(OC)cc2)c1CC(=O)N1CCC(CO)CC1 [Compound 61] | 5% | 0% | 5% | 5%
3 | CCc1c(O)cc(O)c(C(=O)c2ccc(OC(F)(F)F)cc2)c1CC(=O)N(CCO)CCOC [Compound 88] | 4% | 0% | 5% | 6%
4 | CCc1c(O)cc(O)c(C(=O)c2ccc(OCCN3CCOCC3)c(OC)c2)c1CC(=O)N(CCOC)CCOC.Cl [Compound 139] | 4% | 1% | 5% | 5%
5 | CCc1c(O)cc(O)c(C(=O)c2ccc(O)c(OC)c2)c1CC(=O)N(CCOC)CCOC [Compound 106] | 4% | 0% | 4% | 5%
6 | CCc1c(O)cc(O)c(C(=O)c2ccc(OC)cc2)c1CC(=O)N1CCN(c2ccccc2C#N)CC1 [Compound 17] | 4% | 0% | 4% | 5%
7 | CCc1c(O)cc(O)c(C(=O)c2ccsc2)c1CC(=O)N(CCO)CCOC [Compound 151] | 4% | 0% | 4% | 5%
8 | CCc1c(O)cc(O)c(C(=O)c2ccc(OC)c(OC)c2)c1CC(=O)N1CCN(c2ccccc2)CC1 [Compound 41] | 4% | 0% | 4% | 5%
9 | CCc1c(O)cc(O)c(C(=O)c2ccc(OC)cc2)c1CC(=O)N1CCc2cc(OC)c(OC)cc2C1 [Compound 38] | 4% | 0% | 4% | 4%
10 | CCc1c(O)cc(O)c(C(=O)c2ccc(OC)c(OC)c2)c1CC(=O)N(CCO)CCOC [Compound 56] | 5% | 0% | 4% | 5%
11 | CCc1c(O)cc(O)c(C(=O)c2ccc(OCCCN3CCOCC3)c(OC)c2)c1CC(=O)N(CCOC)CCOC [Compound 149] | 4% | 0% | 5% | 4%
12 | CCc1c(O)cc(O)c(C(=O)c2ccc(OC(F)F)cc2)c1CC(=O)N(CCO)CCOC [Compound 91] | 4% | 0% | 4% | 5%
13 | CCc1c(O)cc(O)c(C(=O)c2ccc(OC)cc2)c1CC(=O)N1CCN(c2ncccn2)CC1 [Compound 32] | 4% | 0% | 4% | 5%
14 | CCc1c(O)cc(O)c(C(=O)c2ccc(SC)cc2)c1CC(=O)N(CCO)CCOC [Compound 95] | 4% | 0% | 4% | 5%
15 | CCOc1ccc(C(=O)c2c(O)cc(O)c(CC)c2CC(=O)N(CCO)CCOC)cc1 [Compound 122] | 4% | 0% | 4% | 5%
16 | CCc1c(O)cc(O)c(C(=O)c2ccc(OC)cc2)c1CC(=O)N(C)Cc1cccnc1 [Compound 16] | 4% | 0% | 3% | 5%
17 | CCc1c(O)cc(O)c(C(=O)c2ccc(OCCN3CCOCC3)c(OC)c2)c1CC(=O)N(CCOC)CCOC [Compound 125] | 4% | 0% | 5% | 5%
18 | CCc1c(O)cc(O)c(C(=O)c2ccc(C(F)(F)F)cc2)c1CC(=O)N(CCO)CCOC [Compound 144] | 4% | 0% | 4% | 5%
